Laboratory results reported in US10023559B2 (Hoffmann-La Roche Inc., priority 2014, dated 2018).

What was measured:
rat TAAR1 = rat TAAR1 (Rattus norvegicus (Rat), UniProt Q923Y9); assay: Radioligand binding assay on rat TAAR1; details: read-out: Ki(μM) rat; rat TAAR1, HEK-293 membranes, second value of cell pair mouse/rat
Method: (§1) Membrane Preparation and Radioligand Binding.
HEK-293 cells stably expressing rat TAAR1 were maintained at 37° C. and 5% CO2 in DMEM high glucose medium, containing fetal calf serum (10%, heat inactivated for 30 min at 56° C.), penicillin/streptomycin (1%), and 375 μg/ml geneticin (Gibco). Cells were released from culture flasks using trypsin/EDTA, harvested, washed twice with ice-cold PBS (without Ca^2+ and Mg^2+), pelleted at 1,000 rpm for 5 min at 4° C., frozen and stored at −80° C. Frozen pellets were suspended in 20 ml HEPES-NaOH (20 mM, pH 7.4) containing 10 mM EDTA and homogenized with a Polytron (PT 6000, Kinematica) at 14,000 rpm for 20 s. The homogenate was centrifuged at 48,000×g for 30 min at 4° C. Subsequently, the supernatant was removed and discarded, and the pellet resuspended in 20 ml HEPES-NaOH (20 mM, pH 7.4) containing 0.1 mM EDTA using the Polytron (20 s at 14,000 rpm). This procedure was repeated and the final pellet resuspended in HEPES-NaOH containing 0.1 mM EDTA and homogenized using the Polytron. Typically, aliquots of 2 ml membrane portions were stored at −80° C. With each new membrane batch the dissociation constant (Kd) was determined via a saturation curve. […] Nonspecific binding was defined as the amount of [H]—(S)-4-[(ethyl-phenyl-amino)-methyl]-4,5-dihydro-oxazol-2-ylamine bound in the presence of 10 M unlabeled ligand. All compounds were tested at a broad range of concentrations (10 pM to 10 μM) in duplicates. […] The 96 deep well plates were incubated for 1 hr at 4° C. Incubations were terminated by rapid filtration through Unifilter-96 plates (Packard Instrument Company) and glass filters GF/C (Perkin Elmer) presoaked for 1 hr in polyethylenimine (0.3%) and washed 3 times with 1 ml of cold binding buffer. After addition of 45 μl of Microscint 40 (PerkinElmer) the Unifilter-96 plate was sealed and after 1 hr the radioactivity counted using a TopCount Microplate Scintillation Counter (Packard Instrument Company).

mouse TAAR1 = mouse TAAR1 (Mus musculus (Mouse), UniProt Q923Y8); assay: Radioligand binding assay on mouse TAAR1
mouse TAAR1, sequence (Q923Y8 whole entry): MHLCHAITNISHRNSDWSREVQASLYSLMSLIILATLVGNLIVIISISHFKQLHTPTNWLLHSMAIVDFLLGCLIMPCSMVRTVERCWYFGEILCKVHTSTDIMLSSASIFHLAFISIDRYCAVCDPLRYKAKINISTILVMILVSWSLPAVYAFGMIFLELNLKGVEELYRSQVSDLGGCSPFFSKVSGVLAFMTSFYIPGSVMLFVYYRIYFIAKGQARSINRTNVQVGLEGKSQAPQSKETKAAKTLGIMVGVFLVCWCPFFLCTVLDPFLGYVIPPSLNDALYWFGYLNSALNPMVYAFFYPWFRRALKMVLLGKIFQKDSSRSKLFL
Method: as §1
HEK-293 cells stably expressing mouse TAAR1 were maintained at 37° C. and 5% CO2 in DMEM high glucose medium, containing fetal calf serum (10%, heat inactivated for 30 min at 56° C.), penicillin/streptomycin (1%), and 375 μg/ml geneticin (Gibco). Cells were released from culture flasks using trypsin/EDTA, harvested, washed twice with ice-cold PBS (without Ca^2+ and Mg^2+), pelleted at 1,000 rpm for 5 min at 4° C., frozen and stored at −80° C. Frozen pellets were suspended in 20 ml HEPES-NaOH (20 mM, pH 7.4) containing 10 mM EDTA and homogenized with a Polytron (PT 6000, Kinematica) at 14,000 rpm for 20 s. The homogenate was centrifuged at 48,000×g for 30 min at 4° C. Subsequently, the supernatant was removed and discarded, and the pellet resuspended in 20 ml HEPES-NaOH (20 mM, pH 7.4) containing 0.1 mM EDTA using the Polytron (20 s at 14,000 rpm). This procedure was repeated and the final pellet resuspended in HEPES-NaOH containing 0.1 mM EDTA and homogenized using the Polytron. Typically, aliquots of 2 ml membrane portions were stored at −80° C. With each new membrane batch the dissociation constant (Kd) was determined via a saturation curve. […] Nonspecific binding was defined as the amount of ^3[H]—(S)-4-[(ethyl-phenyl-amino)-methyl]-4,5-dihydro-oxazol-2-ylamine bound in the presence of 10 M unlabeled ligand. All compounds were tested at a broad range of concentrations (10 pM to 10 μM) in duplicates. […] The 96 deep well plates were incubated for 1 hr at 4° C. Incubations were terminated by rapid filtration through Unifilter-96 plates (Packard Instrument Company) and glass filters GF/C (Perkin Elmer) presoaked for 1 hr in polyethylenimine (0.3%) and washed 3 times with 1 ml of cold binding buffer. After addition of 45 μl of Microscint 40 (PerkinElmer) the Unifilter-96 plate was sealed and after 1 hr the radioactivity counted using a TopCount Microplate Scintillation Counter (Packard Instrument Company).

rat TAAR1, sequence (Q923Y9 whole entry): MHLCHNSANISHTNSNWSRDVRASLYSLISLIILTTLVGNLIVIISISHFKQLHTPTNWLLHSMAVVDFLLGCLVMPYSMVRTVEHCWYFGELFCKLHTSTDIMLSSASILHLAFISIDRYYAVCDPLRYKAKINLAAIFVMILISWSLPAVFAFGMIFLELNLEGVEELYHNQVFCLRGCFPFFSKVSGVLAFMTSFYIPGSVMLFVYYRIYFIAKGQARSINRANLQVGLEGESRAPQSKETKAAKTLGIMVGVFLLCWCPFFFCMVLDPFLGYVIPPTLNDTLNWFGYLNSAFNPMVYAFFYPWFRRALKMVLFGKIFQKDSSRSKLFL

Row | Ki (rat TAAR1) [µM] | Ki (mouse TAAR1) [µM] | Structure (SMILES)
1 | 0.0284 | 0.0096 | CCOc1ccc(C(=O)Nc2ccc(OC3CNC3)c(F)c2)cn1 [Example 28, N-[4-(azetidin-3-yloxy)-3-fluoro-phenyl]-6-ethoxy-pyridine-3-carboxamide]
2 | 0.0113 | 0.003 | O=C(Nc1ccc(OC2CNC2)c(F)c1)c1[nH]nc(C2CC2)c1Cl [Example 25, N-[4-(azetidin-3-yloxy)-3-fluoro-phenyl]-4-chloro-3-cyclopropyl-1H-pyrazole-5-carboxamide]
3 | 0.0115 | 0.0075 | CC(C)c1n[nH]c(C(=O)Nc2ccc(OC3CNC3)cc2)c1Cl [Example 33, N-[4-(azetidin-3-yloxy)phenyl]-4-chloro-3-isopropyl-1H-pyrazole-5-carboxamide]
4 | 0.0024 | 0.0122 | CCc1cc(C(=O)Nc2cc(F)c(C=C3CNC3)c(F)c2)nc(C(F)(F)F)n1 [Example 87, N-(4-(azetidin-3-ylidenemethyl)-3,5-difluorophenyl)-6-ethyl-2-(trifluoromethyl)pyrimidine-4-carboxamide]
